In patent publication US9833497B2, “Human originated EGF domain proteins and use of the same” (CHENGDU SOURCEBIO LIMITED-LIABILITY COMPANY, priority 2013, dated 2017):

What was measured:
Type in all cases: cell-based
E. coli DH5α = assay: Antibacterial activity: MIC and growth curve against E. coli DH5α in 96-well plate; details: minimal inhibitory concentration against E. coli DH5α; 96-well plate, 5×10^5 CFU/mL, 37° C., judged after 8 h
Method in brief: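 Log-phase DH5α (OD600 about 0.5, 37° C, 185 rpm in LB) was pelleted, resuspended in fresh LB and seeded at 5×10^5 CFU/mL with recombinant protein at 50, 25 and 12.5 μg/mL (two-fold series), in triplicate. Plates were shaken at 175 rpm, 37° C, and OD600 was read every 30 min. MIC was the lowest concentration with no growth.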

E. coli BL21 = assay: MIC against Gram-negative bacteria: E. coli BL21; details: for MIC against E. coli BL21 / MIC (μg/mL) E. coli BL21: 5×10^5 CFU/mL
Method in brief: (§1)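 Purified recombinant human EGF domain proteins are tested by broth dilution in LB against a 5×10^5 CFU/mL inoculum, with two-fold serial dilutions run in triplicate. Plates are incubated at 37° C with shaking, and the MIC is read as the lowest protein concentration without growth.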

Pseudomonas aeruginosa = assay: MIC against Gram-negative bacteria: Pseudomonas aeruginosa; details: for MIC against P. aeruginosa / MIC (μg/mL) P. aeruginosa: 5×10^5 CFU/mL
Method in brief: as §1

Klebsiella pneumonia = assay: MIC against Gram-negative bacteria: Klebsiella pneumonia; details: for MIC against K. pneumonia / MIC (μg/mL) K. pneumonia: 5×10^5 CFU/mL
Method in brief: as §1

Enterobacter cloacae = assay: MIC against Gram-negative bacteria: Enterobacter cloacae; details: for MIC against E. cloacae / MIC (μg/mL) E. cloacae: 5×10^5 CFU/mL
Method in brief: as §1

Aeromonas hydrophila = assay: MIC against Gram-negative bacteria: Aeromonas hydrophila; details: for MIC against A. hydrophila / MIC (μg/mL) A. hydrophila: 5×10^5 CFU/mL
Method in brief: as §1

Citrobacter diversus = assay: MIC against Gram-negative bacteria: Citrobacter diversus; details: for MIC against C. diversus / MIC (μg/mL) C. diversus: 5×10^5 CFU/mL
Method in brief: as §1

Moraxella catarrhalis = assay: MIC against Gram-negative bacteria: Moraxella catarrhalis; details: for MIC against M. catarrhalis / MIC (μg/mL) M. catarrhalis: 5×10^5 CFU/mL
Method in brief: as §1

Proteus mirabilis = assay: MIC against Gram-negative bacteria: Proteus mirabilis; details: for MIC against P. mirabilis / MIC (μg/mL) P. mirabilis: 5×10^5 CFU/mL
Method in brief: as §1

Proteus vulgaris = assay: MIC against Gram-negative bacteria: Proteus vulgaris; details: for MIC against P. vulgaris / MIC (μg/mL) P. vulgaris: 5×10^5 CFU/mL
Method in brief: as §1

Serratia marcescens = assay: MIC against Gram-negative bacteria: Serratia marcescens; details: for MIC against S. marcescens / MIC (μg/mL) S. marcescens: 5×10^5 CFU/mL
Method in brief: as §1

[1] = E. coli BL21, 96-well plate, 37° C., 10 h
[2] = Pseudomonas aeruginosa, 96-well plate, 37° C., 10 h
[3] = Klebsiella pneumonia, 96-well plate, 37° C., 10 h
[4] = Enterobacter cloacae, 96-well plate, 37° C., 10 h
[5] = Aeromonas hydrophila, 96-well plate, 37° C., 10 h
[6] = Citrobacter diversus, 96-well plate, 37° C., 10 h
[7] = Moraxella catarrhalis, 96-well plate, 37° C., 10 h
[8] = Proteus mirabilis, 96-well plate, 37° C., 10 h
[9] = Proteus vulgaris, 96-well plate, 37° C., 10 h
[10] = Serratia marcescens, 96-well plate, 37° C., 10 h
[11] = E. coli BL21, 10 h cultivation at 37° C.
[12] = Pseudomonas aeruginosa, 10 h cultivation at 37° C.
[13] = Klebsiella pneumonia, 10 h cultivation at 37° C.
[14] = Enterobacter cloacae, 10 h cultivation at 37° C.
[15] = Aeromonas hydrophila, 10 h cultivation at 37° C.
[16] = Citrobacter diversus, 10 h cultivation at 37° C.
[17] = Moraxella catarrhalis, 10 h cultivation at 37° C.
[18] = Proteus mirabilis, 10 h cultivation at 37° C.
[19] = Proteus vulgaris, 10 h cultivation at 37° C.
[20] = Serratia marcescens, 10 h cultivation at 37° C.
[21] = P. aeruginosa, 10 h cultivation at 37° C.
[22] = K. pneumonia, 10 h cultivation at 37° C.
[23] = E. cloacae, 10 h cultivation at 37° C.
[24] = A. hydrophila, 10 h cultivation at 37° C.
[25] = C. diversus, 10 h cultivation at 37° C.
[26] = M. catarrhalis, 10 h cultivation at 37° C.
[27] = P. mirabilis, 10 h cultivation at 37° C.
[28] = P. vulgaris, 10 h cultivation at 37° C.
[29] = S. marcescens, 10 h cultivation at 37° C.

## PRT1205 (EHDECITNQHNCDENALCFNTVGGHNCVCKPGYTGNGTTCK; listed as Homo sapiens)
E. coli DH5α
  MIC: 25 µg/mL
E. coli BL21; [1]
  MIC against E. coli BL21: 12.5 µg/mL
Pseudomonas aeruginosa; [2]
  MIC against P. aeruginosa: 50 µg/mL
Klebsiella pneumonia; [3]
  MIC against K. pneumonia: 25 µg/mL
Enterobacter cloacae; [4]
  MIC against E. cloacae: 12.5 µg/mL
Aeromonas hydrophila; [5]
  MIC against A. hydrophila: 50 µg/mL
Citrobacter diversus; [6]
  MIC against C. diversus: 12.5 µg/mL
Moraxella catarrhalis; [7]
  MIC against M. catarrhalis: 25 µg/mL
Proteus mirabilis; [8]
  MIC against P. mirabilis: 50 µg/mL
Proteus vulgaris; [9]
  MIC against P. vulgaris: 12.5 µg/mL
Serratia marcescens; [10]
  MIC against S. marcescens: 25 µg/mL

## PRT1366 (ERLACPGACSGHGRCVDGRCLCHEPYVGADCG; listed as Homo sapiens)
E. coli DH5α
  MIC: 12.5 µg/mL
E. coli BL21; [11]
  MIC against E. coli BL21: 12.5 µg/mL
Pseudomonas aeruginosa; [12]
  MIC against P. aeruginosa: 12.5 µg/mL
Klebsiella pneumonia; [13]
  MIC against K. pneumonia: 25 µg/mL
Enterobacter cloacae; [14]
  MIC against E. cloacae: 12.5 µg/mL
Aeromonas hydrophila; [15]
  MIC against A. hydrophila: 12.5 µg/mL
Citrobacter diversus; [16]
  MIC against C. diversus: 12.5 µg/mL
Moraxella catarrhalis; [17]
  MIC against M. catarrhalis: 12.5 µg/mL
Proteus mirabilis; [18]
  MIC against P. mirabilis: 12.5 µg/mL
Proteus vulgaris; [19]
  MIC against P. vulgaris: 12.5 µg/mL
Serratia marcescens; [20]
  MIC against S. marcescens: 12.5 µg/mL

## PRT1234 (LASGCPWMCSGRGICDAGRCVCDRGFGGPYCV; listed as Homo sapiens)
E. coli DH5α
  MIC: 25 µg/mL
E. coli BL21; [1]
  MIC against E. coli BL21: 50 µg/mL
Pseudomonas aeruginosa; [2]
  MIC against P. aeruginosa: 12.5 µg/mL
Klebsiella pneumonia; [3]
  MIC against K. pneumonia: 25 µg/mL
Enterobacter cloacae; [4]
  MIC against E. cloacae: 50 µg/mL
Aeromonas hydrophila; [5]
  MIC against A. hydrophila: 25 µg/mL
Citrobacter diversus; [6]
  MIC against C. diversus: 25 µg/mL
Moraxella catarrhalis; [7]
  MIC against M. catarrhalis: 25 µg/mL
Proteus mirabilis; [8]
  MIC against P. mirabilis: 25 µg/mL
Proteus vulgaris; [9]
  MIC against P. vulgaris: 12.5 µg/mL
Serratia marcescens; [10]
  MIC against S. marcescens: 25 µg/mL

## PRT62 (ASGDCVPSPCHNGGTCLEEEEGVRCLCLPGYGGDLCD; listed as Homo sapiens)
E. coli DH5α
  MIC: 12.5 µg/mL
E. coli BL21; [1]
  MIC (μg/mL) E. coli BL21: 100 µg/mL
Pseudomonas aeruginosa; [2]
  MIC (μg/mL) P. aeruginosa: 12.5 µg/mL
Klebsiella pneumonia; [3]
  MIC (μg/mL) K. pneumonia: 12.5 µg/mL
Enterobacter cloacae; [4]
  MIC (μg/mL) E. cloacae: 12.5 µg/mL
Aeromonas hydrophila; [5]
  MIC (μg/mL) A. hydrophila: 25 µg/mL
Citrobacter diversus; [6]
  MIC (μg/mL) C. diversus: 12.5 µg/mL
Moraxella catarrhalis; [7]
  MIC (μg/mL) M. catarrhalis: 25 µg/mL
Proteus mirabilis; [8]
  MIC (μg/mL) P. mirabilis: 12.5 µg/mL
Proteus vulgaris; [9]
  MIC (μg/mL) P. vulgaris: 12.5 µg/mL
Serratia marcescens; [10]
  MIC (μg/mL) S. marcescens: 25 µg/mL

## PRT954 (NIDDCPNHRCQNGGVCVDGVNTYNCRCPPQWTGQFCT; listed as Homo sapiens)
E. coli DH5α
  MIC: 50 µg/mL
E. coli BL21; [11]
  MIC: 25 µg/mL
Pseudomonas aeruginosa; [21]
  MIC: 12.5 µg/mL
Klebsiella pneumonia; [22]
  MIC: 25 µg/mL
Enterobacter cloacae; [23]
  MIC: 50 µg/mL
Aeromonas hydrophila; [24]
  MIC: 12.5 µg/mL
Citrobacter diversus; [25]
  MIC: 25 µg/mL
Moraxella catarrhalis; [26]
  MIC: 50 µg/mL
Proteus mirabilis; [27]
  MIC: 25 µg/mL
Proteus vulgaris; [28]
  MIC: 12.5 µg/mL
Serratia marcescens; [29]
  MIC: 25 µg/mL

## PRT540 (CVCHGHADACDAKDPTDPFRLQCTCQHNTCGGTCDRCCPGFNQQPWKPATANSANECQS; listed as Homo sapiens)
E. coli DH5α
  MIC: 12.5 µg/mL
E. coli BL21; 96-well plate, 37° C., 10 h
  MIC against E. coli BL21: 50 µg/mL
Pseudomonas aeruginosa; 96-well plate, 37° C., 10 h
  MIC against P. aeruginosa: 12.5 µg/mL
Klebsiella pneumonia; 96-well plate, 37° C., 10 h
  MIC against K. pneumonia: 12.5 µg/mL
Enterobacter cloacae; 96-well plate, 37° C., 10 h
  MIC against E. cloacae: 50 µg/mL
Aeromonas hydrophila; 96-well plate, 37° C., 10 h
  MIC against A. hydrophila: 12.5 µg/mL
Citrobacter diversus; 96-well plate, 37° C., 10 h
  MIC against C. diversus: 25 µg/mL
Moraxella catarrhalis; 96-well plate, 37° C., 10 h
  MIC against M. catarrhalis: 50 µg/mL
Proteus mirabilis; 96-well plate, 37° C., 10 h
  MIC against P. mirabilis: 25 µg/mL
Proteus vulgaris; 96-well plate, 37° C., 10 h
  MIC against P. vulgaris: 12.5 µg/mL
Serratia marcescens; 96-well plate, 37° C., 10 h
  MIC against S. marcescens: 50 µg/mL

## PRT963 (QVDECRSQPCRHGGKCLDLVDKYLCRCPSGTTGVNCE; listed as Homo sapiens)
E. coli DH5α
  MIC: 25 µg/mL
E. coli BL21; [11]
  MIC: 50 µg/mL
Pseudomonas aeruginosa; [21]
  MIC: 25 µg/mL
Klebsiella pneumonia; [22]
  MIC: 12.5 µg/mL
Enterobacter cloacae; [23]
  MIC: 25 µg/mL
Aeromonas hydrophila; [24]
  MIC: 50 µg/mL
Citrobacter diversus; [25]
  MIC: 25 µg/mL
Moraxella catarrhalis; [26]
  MIC: 12.5 µg/mL
Proteus mirabilis; [27]
  MIC: 50 µg/mL
Proteus vulgaris; [28]
  MIC: 25 µg/mL
Serratia marcescens; [29]
  MIC: 25 µg/mL

## PRT542 (CRCDIGGALGQSCEPRTGVCRC; listed as Homo sapiens)
E. coli DH5α
  MIC: 25 µg/mL
E. coli BL21; 96-well plate, 37° C., 10 h
  MIC against E. coli BL21: 12.5 µg/mL
Pseudomonas aeruginosa; 96-well plate, 37° C., 10 h
  MIC against P. aeruginosa: 25 µg/mL
Klebsiella pneumonia; 96-well plate, 37° C., 10 h
  MIC against K. pneumonia: 50 µg/mL
Enterobacter cloacae; 96-well plate, 37° C., 10 h
  MIC against E. cloacae: 25 µg/mL
Aeromonas hydrophila; 96-well plate, 37° C., 10 h
  MIC against A. hydrophila: 12.5 µg/mL
Citrobacter diversus; 96-well plate, 37° C., 10 h
  MIC against C. diversus: 50 µg/mL
Moraxella catarrhalis; 96-well plate, 37° C., 10 h
  MIC against M. catarrhalis: 12.5 µg/mL
Proteus mirabilis; 96-well plate, 37° C., 10 h
  MIC against P. mirabilis: 50 µg/mL
Proteus vulgaris; 96-well plate, 37° C., 10 h
  MIC against P. vulgaris: 12.5 µg/mL
Serratia marcescens; 96-well plate, 37° C., 10 h
  MIC against S. marcescens: 50 µg/mL

## PRT1458 (CNCHLSGALNETCHLVTGQCFCKQFVTGSKCDACVPSASHLDVNNLLGCSK; listed as Homo sapiens)
E. coli DH5α
  MIC: 12.5 µg/mL
E. coli BL21; [11]
  MIC against E. coli BL21: 12.5 µg/mL
Pseudomonas aeruginosa; [12]
  MIC against P. aeruginosa: 25 µg/mL
Klebsiella pneumonia; [13]
  MIC against K. pneumonia: 12.5 µg/mL
Enterobacter cloacae; [14]
  MIC against E. cloacae: 25 µg/mL
Aeromonas hydrophila; [15]
  MIC against A. hydrophila: 50 µg/mL
Citrobacter diversus; [16]
  MIC against C. diversus: 25 µg/mL
Moraxella catarrhalis; [17]
  MIC against M. catarrhalis: 25 µg/mL
Proteus mirabilis; [18]
  MIC against P. mirabilis: 12.5 µg/mL
Proteus vulgaris; [19]
  MIC against P. vulgaris: 25 µg/mL
Serratia marcescens; [20]
  MIC against S. marcescens: 50 µg/mL

## PRT215 (YTQCTDGYEWDPVRQQCKDIDECDIVPDACKGGMKCVNHYGGYLCL; listed as Homo sapiens)
E. coli DH5α
  MIC: 25 µg/mL
E. coli BL21; [11]
  MIC (μg/mL) E. coli BL21: 12.5 µg/mL
Pseudomonas aeruginosa; [21]
  MIC (μg/mL) P. aeruginosa: 25 µg/mL
Klebsiella pneumonia; [22]
  MIC (μg/mL) K. pneumonia: 100 µg/mL
Enterobacter cloacae; [23]
  MIC (μg/mL) E. cloacae: 25 µg/mL
Aeromonas hydrophila; [24]
  MIC (μg/mL) A. hydrophila: 12.5 µg/mL
Citrobacter diversus; [25]
  MIC (μg/mL) C. diversus: 25 µg/mL
Moraxella catarrhalis; [26]
  MIC (μg/mL) M. catarrhalis: 12.5 µg/mL
Proteus mirabilis; [27]
  MIC (μg/mL) P. mirabilis: 25 µg/mL
Proteus vulgaris; [28]
  MIC (μg/mL) P. vulgaris: 12.5 µg/mL
Serratia marcescens; [29]
  MIC (μg/mL) S. marcescens: 12.5 µg/mL
